Assays:
HSC2 [1] = test: relative IC50 (inflection point of fitted dose-response curve, CellTox-Green cytotoxicity, 72 h; top asymptote may be below 50%); higher = less potent
Summary of the method: (§1)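 MPNST cell lines and primary human Schwann cells were incubated 72 h at 37 °C in 384-well plates holding five 10-fold compound dilutions. CellTox-Green was added before seeding at a final 1:1000 dilution and reported fluorescence from DNA released by disrupted cells. Signals were scaled to vehicle and positive-control wells, and cultures failing plate quality control were dropped. Drug sensitivity score and relative IC50 come from four-parameter logistic fits, with IC50 censored at the top concentration.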

S1507-2 = test: as above
Summary of the method: as §1

ST8814 [2] = test: as above
Summary of the method: as §1

STS26T [3] = test: as above
Summary of the method: as §1

HS-PSS [4] = test: as above
Summary of the method: as §1

HSC1 [5] = test: as above
Summary of the method: as §1

HSC2 [6] = test: relative IC50 (inflection point of fitted dose-response curve, CellTiter-Glo viability, 72 h; top asymptote may be below 50% inhibition); higher = less potent
Summary of the method: (§2)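 MPNST cell lines and primary human Schwann cells (750–1000 cells per well) went into 384-well plates preprinted with each compound at five concentrations in 10-fold steps. Plates were incubated 72 h at 37 °C, 5% CO2. Viability was read as CellTiter-Glo ATP luminescence, scaled between vehicle and positive-control wells, with duplicates averaged where present. Percent inhibition is at the top concentration; drug sensitivity score and relative IC50 (censored at top concentration) come from four-parameter logistic fits.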

ST8814 [7] = test: as above
Summary of the method: as §2

STS26T [8] = test: as above
Summary of the method: as §2

HS-PSS [9] = test: as above
Summary of the method: as §2

HSC1 [10] = test: as above
Summary of the method: as §2

S462 = test: as above
Summary of the method: as §2

YST-1 = test: as above
Summary of the method: as §2

HS-Sch-2 = test: as above
Summary of the method: as §2

Compound | relative IC50 (HSC2 [1]) [nM] | relative IC50 (S1507-2) [nM] | relative IC50 (ST8814 [2]) [nM] | relative IC50 (STS26T [3]) [nM] | relative IC50 (HS-PSS [4]) [nM] | relative IC50 (HSC1 [5]) [nM] | relative IC50 (HSC2 [6]) [nM] | relative IC50 (ST8814 [7]) [nM] | relative IC50 (STS26T [8]) [nM] | relative IC50 (HS-PSS [9]) [nM] | relative IC50 (HSC1 [10]) [nM] | relative IC50 (S462) [nM] | relative IC50 (YST-1) [nM] | relative IC50 (HS-Sch-2) [nM]
CCn1c(C(=O)N(C2CC2)C2CC2)cc2c3c(ncn3C)c(Nc3cc(C)n(C)n3)nc21 | > 10000 | > 10000 | > 10000 | > 10000 | > 10000 | > 10000 | > 10000 | > 10000 | > 10000 | > 10000 | > 10000 | > 10000 | 1590 | –
Cc1ccc(C(=O)N(CCCN)[C@@H](c2oc3cc(Cl)ccc3c(=O)c2Cc2ccccc2)C(C)C)cc1 | > 100 | > 100 | > 100 | > 100 | > 100 | > 100 | > 100 | > 100 | > 100 | 1.29 | > 100 | – | 0.94 | 1.66
CCCCC/C=C/C=C1/C(=O)C=C[C@@H]1C/C=C\CCCC(=O)O [15D-PGJ2] | > 800 | > 800 | > 800 | > 800 | > 3000 | > 800 | > 800 | > 800 | > 800 | > 3000 | > 800 | > 800 | > 3000 | –
CN[C@@H](C)C(=O)N[C@H]1CN(C(=O)CC(C)C)CC[C@H]2CC[C@@H](C(=O)NC(c3ccccc3)c3ccccc3)N2C1=O [AT-406] | > 10000 | 58.3 | > 10000 | 19.9 | > 10000 | > 10000 | > 10000 | > 10000 | 97.2 | – | > 10000 | > 10000 | > 10000 | –
CC(=O)OC[C@H]1O[C@@H]([S-])[C@H](OC(C)=O)[C@@H](OC(C)=O)[C@@H]1OC(C)=O.CCP(CC)CC.[Au+] [Auranofin] | 575 | > 2500 | – | 697 | 754 | 516 | 462 | 779 | 610 | 668 | 387 | 449 | 805 | 362
CC(C)(C)c1nc(-c2cccc(NS(=O)(=O)c3c(F)cccc3F)c2F)c(-c2ccnc(N)n2)s1 [Dabrafenib] | > 2500 | > 2500 | > 2500 | > 2500 | > 2500 | > 2500 | 63.3 | 968 | 72.8 | 1000 | 220 | 668 | – | –
C=C1C[C@@H]2[C@H](CC[C@]3(C)C(=O)CC[C@@H]23)[C@@]2(C)C=CC(=O)C=C12 [Exemestane] | > 10000 | > 10000 | > 10000 | > 10000 | > 10000 | > 10000 | > 10000 | > 10000 | > 10000 | 1760 | > 10000 | – | > 10000 | –
O=c1[nH]c(=O)n([C@H]2C[C@H](O)[C@@H](CO)O2)cc1F [Floxuridine] | – | > 10000 | 729 | 253 | > 10000 | 3230 | 127 | 123 | 37.9 | 1480 | 752 | 53.4 | 101 | 173
Nc1nc(F)nc2c1ncn2[C@@H]1O[C@H](CO)[C@@H](O)[C@@H]1O [Fludarabine] | > 10000 | > 10000 | > 10000 | > 10000 | > 10000 | > 10000 | 2720 | > 10000 | 1650 | – | 3610 | – | 3480 | 2200
NC(=O)NO [Hydroxyurea] | > 100000 | > 100000 | > 100000 | > 100000 | > 100000 | > 100000 | – | > 100000 | > 100000 | > 100000 | – | > 100000 | – | –
O=C(O)CNC(=O)c1c(O)c2ccccc2n(Cc2ccccc2)c1=O [IOX-2] | > 50000 | > 50000 | > 50000 | > 50000 | > 50000 | > 50000 | – | 8420 | – | 10300 | > 50000 | – | – | 12500
CC[C@H](Nc1ncnc2[nH]cnc12)c1nc2cccc(F)c2c(=O)n1-c1ccccc1 [Idelalisib] | 511 | > 10000 | > 10000 | – | > 10000 | > 10000 | > 10000 | – | 1540 | > 10000 | > 10000 | > 10000 | 1040 | > 10000
Nc1cccc2c1CN(C1CCC(=O)NC1=O)C2=O (stereo not given) [Lenalidomide] | 1870 | > 10000 | > 10000 | > 10000 | > 100000 | > 10000 | – | > 10000 | > 10000 | > 100000 | – | > 10000 | – | –
Cn1cnc2c(F)c(Nc3ccc(Br)cc3F)c(C(=O)NOCCO)cc21 [MEK-162] | > 1000 | > 1000 | > 1000 | > 1000 | – | > 1000 | > 1000 | – | – | – | – | 124 | – | –
N[C@@H](Cc1ccc(N(CCCl)CCCl)cc1)C(=O)O [Melphalan aq] | > 12500 | > 12500 | > 12500 | > 12500 | – | > 12500 | > 12500 | > 12500 | > 12500 | – | – | > 12500 | – | –
Sc1ncnc2nc[nH]c12 [Mercaptopurine] | > 10000 | > 10000 | > 10000 | – | > 10000 | > 10000 | > 10000 | 193 | 1270 | – | > 10000 | 1460 | – | 640
CN(Cc1cnc2nc(N)nc(N)c2n1)c1ccc(C(=O)N[C@@H](CCC(=O)O)C(=O)O)cc1 [Methotrexate] | > 5000 | > 5000 | – | 314 | > 5000 | > 5000 | – | 195 | 14.9 | > 5000 | > 5000 | 27.6 | 60.9 | 89.2
C[C@]12C=CC(=O)C=C1CC[C@@H]1[C@@H]2[C@@H](O)C[C@@]2(C)[C@H]1CC[C@]2(O)C(=O)CO [Prednisolone] | > 10000 | > 10000 | > 10000 | > 10000 | > 10000 | > 10000 | > 10000 | – | > 10000 | > 10000 | > 10000 | > 10000 | – | > 10000
C[C@]12C=CC(=O)C=C1CC[C@@H]1[C@@H]2C(=O)C[C@@]2(C)[C@H]1CC[C@]2(O)C(=O)CO [Prednisone] | > 10000 | > 10000 | > 10000 | > 10000 | > 10000 | > 10000 | > 10000 | > 10000 | > 10000 | > 10000 | > 10000 | > 10000 | > 10000 | –
CC(C)(C)c1cc(NC(=O)Nc2ccc(-c3cn4c(n3)sc3cc(OCCN5CCOCC5)ccc34)cc2)no1 [Quizartinib] | > 1000 | > 1000 | > 1000 | > 1000 | > 1000 | > 1000 | 402 | – | – | > 1000 | 197 | 179 | 153 | –
CNC(=O)c1cc(Oc2ccc(NC(=O)Nc3ccc(Cl)c(C(F)(F)F)c3)c(F)c2)ccn1 [Regorafenib] | > 10000 | > 10000 | 3160 | – | > 10000 | > 10000 | 2050 | 1340 | 1690 | 3580 | 2770 | 1700 | 1700 | 3570
CCS(=O)(=O)c1cccc(-c2cc(C(=O)NC3CCN(C)CC3)c(C)c3[nH]c4ncc(C)cc4c23)c1 [TAK-901] | 183 | > 1000 | 134 | 62.3 | > 1000 | – | 72.5 | 267 | 112 | 150 | 111 | 122 | 63.3 | 327
C=CC[C@@H]1/C=C(\C)C[C@H](C)C[C@H](OC)[C@H]2O[C@@](O)(C(=O)C(=O)N3CCCC[C@H]3C(=O)O[C@H](/C(C)=C/[C@@H]3CC[C@@H](O)[C@H](OC)C3)[C@H](C)[C@@H](O)CC1=O)[C@H](C)C[C@@H]2OC [Tacrolimus] | > 10000 | > 10000 | > 10000 | > 10000 | > 10000 | > 10000 | > 10000 | – | > 10000 | > 10000 | – | > 10000 | > 10000 | > 10000
COc1cc2c(N3CCN(C(=O)Nc4ccc(OC(C)C)cc4)CC3)ncnc2cc1OCCCN1CCCCC1 [Tandutinib] | > 1000 | > 1000 | > 1000 | > 1000 | > 1000 | > 1000 | > 1000 | > 1000 | > 1000 | – | > 1000 | > 1000 | > 1000 | > 1000
Cn1nnc2c(C(N)=O)ncn2c1=O [Temozolomide] | > 10000 | > 10000 | > 10000 | > 10000 | > 100000 | > 10000 | > 10000 | – | > 10000 | – | > 10000 | > 10000 | – | –
O=C1CCC(N2C(=O)c3ccccc3C2=O)C(=O)N1 (stereo not given) [Thalidomide] | > 10000 | > 10000 | > 10000 | – | > 10000 | > 10000 | > 10000 | – | > 10000 | > 10000 | > 10000 | > 10000 | > 10000 | –
O=C(c1ccc(C(=O)N2CCC(N3CCCC3)CC2)c(Nc2ccccc2)c1)N1CCC(N2CCCC2)CC1 [UNC1215] | > 30000 | > 30000 | > 30000 | – | > 30000 | > 30000 | > 30000 | – | > 30000 | – | > 30000 | > 30000 | > 30000 | –
CCCS(=O)(=O)Nc1ccc(F)c(C(=O)c2c[nH]c3ncc(-c4ccc(Cl)cc4)cc23)c1F [Vemurafenib] | > 10000 | > 10000 | – | 1170 | > 10000 | > 10000 | 1460 | > 10000 | 1840 | 3730 | 1740 | > 10000 | > 10000 | 3920
